Data: patent US20250090698A1, “SMALL MOLECULE INHIBITORS FOR EARLY DIAGNOSIS OF PROSTATE SPECIFIC MEMBRANE ANTIGEN CANCERS AND NEURODEGENERATIVE DISEASES” (INDIAN INSTITUTE OF TECHNOLOGY INDORE, priority 2018, published 2025)
Values joined by “and” are separate entries in the source; they are usually repeats but may differ in a detail not shown here. Identical values can stand only once.

Key:
[1] = biological target: T1, PSMA protein isolated from prostate cancer cell LNCaP (Homo sapiens, UniProt Q04609); experiment: PSMA or GCPII enzyme inhibition (NAALADase) assay, Amplex Glutamate kit; type: biochemical; conditions: NAAG 30 nM substrate, 60 min, fluorescence
T1 construct: membrane portion of PSMA enzyme was extracted from PSMA+ LNCaP cell line; endogenous in cells; host or cells: LNCaP (membrane pellet after 100,000 x g ultracentrifugation)
Protocol: Briefly, PSMA enzyme was extracted from membrane lysates of LNCaP cell lines after separating the soluble cytosolic PSM′ portion by ultracentrifugation at 100,000×g. The PSMA enzyme (8.3027 ng, 100 μL) free from cytosolic portion was incubated with various concentrations of the AAPT inhibitor (0.1 nM to 1000 nM, 100 μL) in the presence of NAAG (30 nM, 50 μL) for 60 min in a 24-well plate. The amount of glutamic acid released by the hydrolysis of NAAG during competitive inhibition by AAPT inhibitor was measured by incubating each well with a working solution of Amplex Red reagent (100 uM, 50 μL) for 30 min at 37° C. The fluorescence emission from each well, proportional to the amount of released glutamic acid, was measured using Synergy H1 multimode plate reader (BioTek Instruments, Inc., Winooski, VT, USA) at an excitation and emission wavelength of 530 nm and 590 nm respectively.
In the first trial, the enzyme inhibition analysis was performed by incubating PSMA enzyme with increasing concentrations of inhibitor, AAPT.
Fluorescent-based enzyme inhibition assay was performed to determine the IC50 value of the newly synthesized GCPII inhibitors 1-3 (AAPT ligands). Amplex Glutamate kit was purchased from Invitrogen, and a working solution of Amplex Red reagent (5 mL, 100 μM) was prepared. Meanwhile, membrane portion of PSMA enzyme was extracted from PSMA+ LNCaP cell line by following a reported protocol. Briefly LNCaP cells (1 million) were harvested in HEPES buffer (1 mL) and lyzed twice using probe sonicator for 30 s. […] The amount of glutamic acid released by the hydrolysis of NAAG was measured by incubating a working solution of Amplex Red reagent (50 μL, 100 μM) for 30 min at 37° C. The fluorescence emission after the oxidation of Amplex Red reagent was measured by using Synergy H1 multimode plate reader (BioTek Instruments, Inc., Winooski, VT, USA). The excitation wavelength was fixed at 530 nm, and the fluorescence emission is measured at 590 nm. […]

[2] = biological target: T2, PSMA protein (Homo sapiens, UniProt Q04609); experiment: Binding affinity of 99mTc AAPT-PCa bioconjugates in PSMA+ LNCaP cells, gamma counter; conditions: 99mTc bioconjugate, counts per minute, 1 h incubation, read-out: dissociation constant (KD), binding affinity
T2 construct: endogenous in cells; host or cells: LNCaP
Protocol: In an embodiment, FIG. 24, evaluation of binding affinity of AAPT-PCa Bioconjugate 8a in PSMA+ LNCaP cells was done, using gamma scintillation counter. The binding affinity constant of PSMA targeted conjugate, 8a, to target PSMA was determined in vitro in LNCaP cells by measuring the counts per minute for different concentrations of the ^99mTc bioconjugate 8a in triplicate.
A solution of stannous chloride dihydrate (0.80 mg, 0.003 mmol) in 0.2 M hydrochloric acid (0.8 mL) was added to a solution of sodium-α-D-glucoheptonate dihydrate (800 mg, 2.815 mmol) in nitrogen-purged water. Chelating bioconjugate 8a-g (0.001 mmol) was added to the reaction mixture while continuous nitrogen purging. The pH of the solution was adjusted to 6.8 using 0.1 N sodium hydroxide solution. After the pH adjustment nitrogen-purged water was added to achieve a total volume of 10 mL. The solution was then dispensed in 5 mL vials (1 mL/vial) under nitrogen atmosphere and lyophilized for 48 h. […]
The cells were then gently dissociated with trypsin and centrifuge to obtain a pellet. […] The cell pellet free of unbound bioconjugate was resuspended in the ice-cold FACS buffer to evaluate cell-bound radioactivity using a gamma counter. The dissociation constant Kd was calculated using graph pad prism 7.04.

[3] = biological target: T2, PSMA protein; experiment: Binding affinity of fluorescent conjugates in LNCaP cells by flow cytometry (FACS); conditions: mean fluorescence intensity, triplicate, read-out: dissociation constant (KD)
Protocol: In an embodiment in FIG. 15, Evaluation of binding affinity of PSMA targeted fluorescent conjugate 22, AAPT-C17201, using flow cytometry analysis. The binding affinity constant of PSMA targeted fluorescent conjugate, AAPT-C17201, to target PSMA was determined in vitro in LNCaP cells by measuring the mean fluorescence intensity per cell for different concentrations of the fluorescent conjugate in triplicate using Fluorescence Activated Cell Sorting (FACS) study.

T1 sequence (Q04609 whole entry): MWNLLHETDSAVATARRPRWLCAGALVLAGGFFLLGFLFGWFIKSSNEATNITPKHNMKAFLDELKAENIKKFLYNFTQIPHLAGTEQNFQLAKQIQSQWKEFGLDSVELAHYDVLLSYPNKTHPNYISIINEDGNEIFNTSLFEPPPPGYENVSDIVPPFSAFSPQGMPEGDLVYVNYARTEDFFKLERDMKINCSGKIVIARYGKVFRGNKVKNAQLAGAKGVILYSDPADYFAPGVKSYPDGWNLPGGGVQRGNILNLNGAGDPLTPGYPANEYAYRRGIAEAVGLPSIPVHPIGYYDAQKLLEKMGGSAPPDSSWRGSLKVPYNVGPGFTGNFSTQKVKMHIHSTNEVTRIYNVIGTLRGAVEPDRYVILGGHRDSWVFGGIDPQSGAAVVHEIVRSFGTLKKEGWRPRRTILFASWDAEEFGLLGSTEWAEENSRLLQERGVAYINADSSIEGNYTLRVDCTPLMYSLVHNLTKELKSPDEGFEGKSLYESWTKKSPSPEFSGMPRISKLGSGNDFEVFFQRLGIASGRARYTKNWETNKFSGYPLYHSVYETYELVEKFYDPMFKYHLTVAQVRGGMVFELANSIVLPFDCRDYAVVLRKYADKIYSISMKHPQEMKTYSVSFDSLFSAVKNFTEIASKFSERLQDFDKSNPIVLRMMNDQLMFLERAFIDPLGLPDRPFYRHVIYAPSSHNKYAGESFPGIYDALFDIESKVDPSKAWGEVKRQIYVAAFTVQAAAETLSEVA
T2 sequence (Q04609 whole entry): as above

For `O=C(O)CC[C@H](NCC(=O)N[C@@H](CCC(=O)O)C(=O)O)C(=O)O` [Ligand 1], the IC50 [1] was 38.5 nM and 95 nM and 78 nM.

For `NC(CNC(=O)[C@H](Cc1cccc2ccccc12)NC(=O)[C@H](Cc1cccc2ccccc12)NC(=O)CCCCCCCNC(=O)CCC(NC(=O)CNC(CCC(=O)O)C(=O)O)C(=O)O)C(=O)N[C@@H](CC(=O)O)C(=O)N[C@@H](CS)C(=O)O` (stereo partly shown) [Ligand 8g], the Kd [2] was 42 nM.

In the case of `CCN(CC)c1ccc2c(-c3ccccc3C(=O)NCCCC[C@H](NC(=O)CCCCCCCNC(=O)[C@H](Cc3ccccc3)NC(=O)[C@H](Cc3ccccc3)NC(=O)CCCCCCCNC(=O)CC[C@H](NC(=O)CN[C@@H](CCC(=O)O)C(=O)O)C(=O)O)C(=O)N[C@@H](CC(=O)O)C(=O)NCCN)c3ccc(=[N+](CC)CC)cc-3oc2c1` [Ligand 22], the Kd [3] is reported as 85 nM.

`CCN(CC)c1ccc2c(-c3ccccc3C(=O)NCCCC[C@H](NC(=O)CCCCCCCNC(=O)c3ccc(CNC(=O)[C@H](Cc4ccccc4)NC(=O)[C@H](Cc4ccccc4)NC(=O)CCCCCCCNC(=O)CC[C@H](NC(=O)CN[C@@H](CCC(=O)O)C(=O)O)C(=O)O)cc3)C(=O)N[C@@H](CC(=O)O)C(=O)NCCN)c3ccc(=[N+](CC)CC)cc-3oc2c1` [Ligand 25] was tested, and the Kd [3] was 130 nM.
